Measured values from patent US20250136594A1 (Tango Therapeutics, Inc., priority 2022, published 2025).
Read-outs that look alike come from different tables or passages of the source.

Tests used:
[1] = system: SDMA in HAP1 MTAP-intact cell line (PRMT5 inhibition); test: SDMA in-cell western assay, HAP1 MTAP-intact cell line; settings: Homo sapiens, HAP1, read-out: Hap1 MTAP intact IC50
[2] = system: HAP1 MTAP-deleted cell line; test: Viability assay, HAP1 MTAP-deleted cell line; assay type: cell-based; settings: Homo sapiens
[3] = system: SDMA in HAP1 MTAP-deleted (MTAP-null) cell line (PRMT5 inhibition); test: SDMA in-cell western assay, HAP1 MTAP-deleted cell line; settings: for IC50 / IC90: Homo sapiens; for IC50: HAP1, read-out: Hap1 MTAP deleted IC50; for IC90: HAP1, read-out: Hap1 MTAP deleted IC90; for Hap1 MTAP intact/deleted ratio: ratio of SDMA IC50 in HAP1 MTAP-intact to HAP1 MTAP-deleted cell line
[4] = viability assay, HAP1 MTAP-deleted cell line, read-out: Hap1 MTAP deleted viability IC50

SMILES	IC50 [1] [nM]	IC50 [2, 4] [nM]	IC50 [3] [nM]	IC90 [3] [nM]	Hap1 MTAP intact/deleted ratio [3]	IC50 ([2]; HAP1, read-out: Hap1 MTAP deleted viability IC50) [nM]
COC[C@@H](C1CC1)N(Cc1ccc(C(F)(F)F)cn1)C(=O)C(=O)Nc1cnc(N)c2cn[nH]c12 [Compound 39, (R)-N1-(4-amino-1H-pyrazolo[4,3-c]pyridin-7-yl)-N^2-(1-cyclopropyl-2-methoxyethyl)-N^2-((5-(trifluoromethyl)pyridin-2-yl)methyl)oxalamide]	5 to 50	< 100	< 5	< 75	B (IC50 ratio greater than or equal to 15 fold but lower than 30 fold)	
CCN(Cc1ccc(S(F)(F)(F)(F)F)cc1C)C(=O)C(=O)Nc1cnc(N)c2cn[nH]c12 [Compound 194, N-(4-Amino-1H-pyrazolo[4,3-c]pyridin-7-yl)-N′-ethyl-N′-[[2-methyl-4-(pentafluoro-sulfanyl)phenyl]methyl]oxamide]	5 to 50	< 100	< 5	< 75	B (IC50 ratio greater than or equal to 15 fold but lower than 30 fold)	
Cc1cccc(CN(Cc2ccccc2)C(=O)C(=O)Nc2cnc(N)c3cn[nH]c23)c1C [Compound 130, N-(4-amino-2H-pyrazolo[4,3-c]pyridin-7-yl)-N′-benzyl-N′—[(2,3-dimethylphenyl)methyl]oxamide]	5 to 50	< 100	< 5	< 75	B (IC50 ratio greater than or equal to 15 fold but lower than 30 fold)	
CN(Cc1ccc(C(F)(F)F)cc1F)C(=O)C(=O)Nc1cnc(N)c2cn[nH]c12 [Compound 96, N-(4-Amino-1H-pyrazolo[4,3-c]pyridin-7-yl)-N′-[[2-fluoro-4-(trifluoromethyl)phenyl]methyl]-N′-methyl-oxamide]	> 50	100 to 1000	5 to 50	> 125	A (IC50 ratio greater than or equal to 30 fold)	
Cc1cccc(CN(Cc2ccccc2)C(=O)C(=O)Nc2cnc(N)c3cn[nH]c23)n1 [Compound 191, N-(4-amino-1H-pyrazolo[4,3-c]pyridin-7-yl)-N′-benzyl-N′-[(6-methyl-2-pyridyl)methyl]oxamide]	5 to 50	< 100	< 5	< 75	A (IC50 ratio greater than or equal to 30 fold)	
COC[C@@H](C1CC1)N(Cc1ccc(C(F)(F)F)cn1)C(=O)C(=O)Nc1ccn2ccnc2c1 [Compound 31, (R)—N^1-(1-cyclopropyl-2-methoxyethyl)-N^2-(imidazo[1,2-a]pyridin-7-yl)-N^1-((5-(trifluoromethyl)pyridin-2-yl)methyl)oxalamide]	> 50	100 to 1000	5 to 50	> 125	B (IC50 ratio greater than or equal to 15 fold but lower than 30 fold)	
CNc1cccc(CN(Cc2ccccc2)C(=O)C(=O)Nc2cnc(N)c3cn[nH]c23)c1 [Compound 93, N-(4-amino-1H-pyrazolo[4,3-c]pyridin-7-yl)-N′-benzyl-N′-[[3-(methylamino)phenyl]methyl]oxamide]	5 to 50	< 100	< 5	< 75	B (IC50 ratio greater than or equal to 15 fold but lower than 30 fold)	
C[C@H](c1ccc(C(F)(F)F)cc1F)N(C)C(=O)C(=O)Nc1cnc(N)c2c1cnn2C [Compound 84, N-(7-Amino-1-methyl-pyrazolo[3,4-c]pyridin-4-yl)-N′-methyl-N′—[(1R)-1-[2-fluoro-4-(trifluoromethyl)phenyl]ethyl]oxamide]	5 to 50	< 100	< 5	< 75	A (IC50 ratio greater than or equal to 30 fold)	
Nc1ncc(NC(=O)C(=O)N(Cc2ccc(C(F)(F)F)cn2)[C@@H]2CCC[C@H]2OC(F)F)c2[nH]ncc12 [Compound 43, N1-(4-amino-1H-pyrazolo[4,3-c]pyridin-7-yl)-N^2-((1R,2R)-2-(difluoromethoxy)cyclopentyl)-N^2-((5-(trifluoromethyl)pyridin-2-yl)methyl)oxalamide]	5 to 50	< 100	< 5	< 75	C (IC50 ratio of less than 15 fold)	
CC(c1ccccn1)N(Cc1ccccc1)C(=O)C(=O)Nc1cnc(N)c2cn[nH]c12 (stereo not shown) [Compound 139, N-(4-amino-1H-pyrazolo[4,3-c]pyridin-7-yl)-N′-benzyl-N′-[1-(2-pyridyl)ethyl]oxamide]	5 to 50	< 100	< 5	< 75	A (IC50 ratio greater than or equal to 30 fold)	
Cc1ccccc1CN(Cc1ccccc1)C(=O)C(=O)Nc1cnc(C)c2cn[nH]c12 [Compound 90]	> 50	100 to 1000	< 5	> 125	A (IC50 ratio greater than or equal to 30 fold)	
Cc1cc(NC(=O)C(=O)N(Cc2ccc(C(F)(F)F)cn2)[C@@H]2CCC[C@H]2OC(F)F)cnc1N [Compound 19, N1-(6-amino-5-methylpyridin-3-yl)-N^2-((1R,2R)-2-(difluoromethoxy)cyclopentyl)-N^2-((5-(trifluoromethyl)pyridin-2-yl)methyl)oxalamide]	5 to 50	100 to 1000	< 5	> 125	C (IC50 ratio of less than 15 fold)	
CC(C)CN(Cc1ccccc1)C(=O)C(=O)Nc1cnc(N)c2cn[nH]c12 [Compound 101, N-(4-amino-1H-pyrazolo[4,3-c]pyridin-7-yl)-N′-benzyl-N′-isobutyl-oxamide]	> 50	< 100	< 5	75 to 125	A (IC50 ratio greater than or equal to 30 fold)	
Cc1ccccc1CN(Cc1ccc(F)cc1)C(=O)C(=O)Nc1cnc(N)c2cn[nH]c12 [Compound 173, N-(4-amino-1H-pyrazolo[4,3-c]pyridin-7-yl)-N′-[(4-fluorophenyl)methyl]-N′-(o-tolylmethyl)oxamide]	5 to 50	< 100	< 5	< 75	C (IC50 ratio of less than 15 fold)	
Nc1ncc(NC(=O)C(=O)N(Cc2ccc(C(F)(F)F)cn2)Cc2ccccc2Cl)c2[nH]ncc12 [Compound 182, N-(4-amino-1H-pyrazolo[4,3-c]pyridin-7-yl)-N′-[(2-chlorophenyl)methyl]-N′-[[5-(trifluoromethyl)-2-pyridyl]methyl]oxamide]	5 to 50	< 100	5 to 50	< 75	C (IC50 ratio of less than 15 fold)	
CCN(Cc1nccc2ccccc12)C(=O)C(=O)Nc1cnc(N)c2cn[nH]c12 [Compound 146, N-(4-amino-2H-pyrazolo[4,3-c]pyridin-7-yl)-N′-ethyl-N′-(1-isoquinolylmethyl)oxamide]	> 50	100 to 1000	< 5	75 to 125	A (IC50 ratio greater than or equal to 30 fold)	
COc1ncc(NC(=O)C(=O)N(Cc2ccc(C(F)(F)F)cn2)[C@@H]2CCC[C@H]2OC(F)F)cc1C(N)=O [Compound 32, N1-(5-carbamoyl-6-methoxypyridin-3-yl)-N^2-((1R,2R)-2-(difluoromethoxy)cyclopentyl)-N^2-((5-(trifluoromethyl)pyridin-2-yl)methyl)oxalamide]	> 50	100 to 1000	5 to 50	> 125	A (IC50 ratio greater than or equal to 30 fold)	
C[C@@H](c1ccc(C(F)(F)F)cc1C(F)(F)F)N(C)C(=O)C(=O)Nc1cnc(N)c2cn[nH]c12 [Compound 169, N-(4-Amino-2H-pyrazolo[4,3-c]pyridin-7-yl)-N′-methyl-N′—[(1S)-1-[2,4-bis (trifluoromethyl)phenyl]ethyl]oxamide]	> 50		5 to 50	> 125		100 to 1000
COc1ncc(NC(=O)C(=O)N(Cc2ccc(C(F)(F)F)cn2)Cc2ccccc2C)cc1C(N)=O [Compound 143]	> 50	< 100	< 5	< 75	A (IC50 ratio greater than or equal to 30 fold)	
Cc1c(CN(Cc2ccccn2)C(=O)C(=O)Nc2cnc(N)c3cn[nH]c23)cccc1N(C)C [Compound 124, N1-(4-amino-1H-pyrazolo[4,3-c]pyridin-7-yl)-N^2-(3-(dimethylamino)-2-methylbenzyl)-N^2-(pyridin-2-ylmethyl)oxalamide]	5 to 50	< 100	< 5	< 75	C (IC50 ratio of less than 15 fold)	
Cc1ccccc1CN(C(=O)C(=O)Nc1cnc(N)c2cn[nH]c12)[C@H](C)C(C)C [Compound 177, (R)—N^1-(4-amino-1H-pyrazolo[4,3-c]pyridin-7-yl)-N^2-(2-methylbenzyl)-N^2-(3-methylbutan-2-yl)oxalamide]	> 50	< 100	< 5	< 75	B (IC50 ratio greater than or equal to 15 fold but lower than 30 fold)	
CC(C)CN(Cc1ccccn1)C(=O)C(=O)Nc1cnc(N)c2cn[nH]c12 [Compound 160, N-(4-amino-1H-pyrazolo[4,3-c]pyridin-7-yl)-N′-isobutyl-N′-(2-pyridylmethyl)oxamide]	> 50	100 to 1000	< 5	75 to 125	A (IC50 ratio greater than or equal to 30 fold)	
